For data set [1], the system named is Erysiphe graminis f. sp. hordei. Briefly: Erysiphe test (barley) / protective. It counts as in vivo. Particulars: Blumeria graminis, 168 h, 500 ppm active ingredient, evaluated 7 days after inoculation, 0 % = control, 100 % = no infestation, read-out: Wirkungsgrad. From the text:
(§1) Zur Herstellung einer zweckmäßigen Wirkstoffzubereitung vermischt man 1 Gewichtsteil Wirkstoff mit den angegebenen Mengen Lösungsmittel und Emulgator und verdünnt das Konzentrat mit Wasser auf die gewünschte Konzentration.
Zur Prüfung auf protektive Wirksamkeit bespritzt man junge Getreidepflanzen mit der Wirkstoffzubereitung in der angegebenen Aufwandmenge. 1 Tag nach der Behandlung werden die Pflanzen mit Sporen von Erysiphe graminis f. sp. hordei inokuliert. Anschließend werden die Pflanzen in einem Gewächshaus bei 70 % relativer Luftfeuchtigkeit und einer Temperatur von 18°C aufgestellt.
7 Tage nach der Inokulation erfolgt die Auswertung. Dabei bedeutet 0 % ein Wirkungsgrad, der demjenigen der Kontrolle entspricht, während ein Wirkungsgrad von 100 % bedeutet, daß kein Befall beobachtet wird.

A further data set relates to Leptosphaeria nodorum. Briefly: Leptosphaeria nodorum test (wheat) / protective. Particulars: 500 ppm active ingredient, evaluated 12-14 days after inoculation, 0 % = control, 100 % = no infestation. It counts as in vivo.
Text: as §1
Zur Prüfung auf protektive Wirksamkeit bespritzt man junge Weizenpflanzen mit der Wirkstoffzubereitung in der angegebenen Aufwandmenge. 1 Tag nach der Behandlung werden die Pflanzen mit einer wäßrigen Sporensuspension von Leptosphaeria nodorum inokuliert und verbleiben dann 48h bei 100% rel. Luftfeuchte und 20°C. Anschließend werden die Pflanzen in einem Gewächshaus bei 80 % rel. Luftfeuchtigkeit und einer Temperatur von 22°C aufgestellt.
12-14 Tage nach der Inokulation erfolgt die Auswertung. Dabei bedeutet 0 % ein Wirkungsgrad, der demjenigen der Kontrolle entspricht, während ein Wirkungsgrad von 100 % bedeutet, dass kein Befall beobachtet wird.

In a further data set the test system is Puccinia recondita. Briefly: Puccinia test (wheat) / protective. It counts as in vivo. Particulars: 240 h, 1000 ppm active ingredient, protective spray, evaluated 10 days after inoculation, 0 % = control, 100 % = no infestation, read-out: Wirkungsgrad.
Text: as §1
Zur Prüfung auf protektive Wirksamkeit werden junge Pflanzen mit der Wirkstoffzubereitung in der angegebenen Aufwandmenge besprüht. Nach Antrocknen des Spritzbelages werden die Pflanzen mit einer Konidiensuspension von Puccinia recondita besprüht. Die Pflanzen verbleiben 48 Stunden bei 20°C und 100 % relativer Luftfeuchtigkeit in einer Inkubationskabine.
Die Pflanzen werden dann in einem Gewächshaus bei einer Temperatur von ca. 20°C und einer relativen Luftfeuchtigkeit von 80 % aufgestellt, um die Entwicklung von Rostpusteln zu begünstigen.
10 Tage nach der Inokulation erfolgt die Auswertung. Dabei bedeutet 0 % ein Wirkungsgrad, der demjenigen der Kontrolle entspricht, während ein Wirkungsgrad von 100 % bedeutet, daß kein Befall beobachtet wird.

Data set [2] can be described thus: logP (acidic, pH 2.3, and neutral). Type of data set: physicochemical.
Another data set deals with Podosphaera leucotricha. Nature of the data set: Podosphaera test (apple) / protective. It counts as in vivo. Particulars: 240 h, 100 ppm active ingredient, evaluated 10 days after inoculation, 0 % = control, 100 % = no infestation, read-out: Wirkungsgrad.
Text: as §1
Zur Prüfung auf protektive Wirksamkeit werden junge Pflanzen mit der Wirkstoffzubereitung in der angegebenen Aufwandmenge besprüht. Nach Antrocknen des Spritzbelages werden die Pflanzen mit einer wäßrigen Sporensuspension des Apfelmehltauerregers Podosphaera leucotricha inokuliert. Die Pflanzen werden dann im Gewächshaus bei ca. 23°C und einer relativen Luftfeuchtigkeit von ca. 70% aufgestellt.
(§2) 10 Tage nach der Inokulation erfolgt die Auswertung. Dabei bedeutet 0% ein Wirkungsgrad, der demjenigen der Kontrolle entspricht, während ein Wirkungsgrad von 100% bedeutet, daß kein Befall beobachtet wird.

Another data set has as its system Sphaerotheca fuliginea. Nature of the data set: Sphaerotheca test (cucumber) / protective. It counts as in vivo. Particulars: Podosphaera fuliginea, 168 h, 100ppm active ingredient, evaluated 7 days after inoculation, 0 % = control, 100 % = no infestation, read-out: Wirkungsgrad.
Text: as §1
Zur Prüfung auf protektive Wirksamkeit werden junge Pflanzen mit der Wirkstoffzubereitung in der angegebenen Aufwandmenge besprüht. Nach Antrocknen des Spritzbelages werden die Pflanzen mit einer wäßrigen Sporensuspension von Sphaerotheca fuliginea inokuliert. Die Pflanzen werden dann bei ca. 23°C und einer relativen Luftfeuchtigkeit von ca. 70% im Gewächshaus aufgestellt.
7 Tage nach der Inokulation erfolgt die Auswertung. Dabei bedeutet 0% ein Wirkungsgrad, der demjenigen der Kontrolle entspricht, während ein Wirkungsgrad von 100% bedeutet, daß kein Befall beobachtet wird.

A further data set concerns Uromyces appendiculatus. Nature of the data set: Uromyces test (bean) / protective. It counts as in vivo. Particulars: 10ppm active ingredient, evaluated 10 days after inoculation, 0 % = control, 100 % = no infestation.
Text: as §1
Zur Prüfung auf protektive Wirksamkeit werden junge Pflanzen mit der Wirkstoffzubereitung in der angegebenen Aufwandmenge besprüht. Nach Antrocknen des Spritzbelages werden die Pflanzen mit einer wäßrigen Sporensuspension des Bohnenrosterregers Uromyces appendiculatus inokuliert und verbleiben dann 1 Tag bei ca. 20°C und 100% relativer Luftfeuchtigkeit in einer Inkubations-kabine.
Die Pflanzen werden dann im Gewächshaus bei ca. 21°C und einer relativen Luftfeuchtigkeit von ca. 90% aufgestellt.
as §2

In general, logP refers to a log measure of how a compound divides between an organic and an aqueous phase.

SMILES strings stand for the structures.

`CCN(C)C=Nc1cc(C)c(Oc2cc(F)cc(Br)c2)cc1C` [Nr. 3]: in data set [1], the pest or weed control at 500 ppm was not below 70%. For the same molecule, the Wirkungsgrad in the data set on Leptosphaeria nodorum and with Uromyces appendiculatus was not below 70% each time. Further, the pest or weed control at 1000 ppm in the data set on Puccinia recondita was not below 70%. Also, the lipophilicity (logP) in data set [2] (neutral, read-out: logP neutr.) came to 5.8. In addition, the logD in data set [2] (pH 2.3, acidic, read-out: logP sauer) was determined as 2.29. In addition, the pest or weed control at 100 ppm in the data set with Podosphaera leucotricha and with Sphaerotheca fuliginea was not below 70% each time.
